# Measured values published in PMC5740388, “In Vitro Antibacterial Properties of Cefiderocol, a Novel Siderophore Cephalosporin, against Gram-Negative Bacteria” (Antimicrobial Agents and Chemotherapy, 2017).
# Read-outs that look alike come from different tables or passages of the source.
# How the values were obtained:
# Type in all cases: binding
# [1] = target: T1, PBP2 of K. pneumoniae SR22291 (Klebsiella pneumoniae, UniProt A6T696); test: competition with […]benzylpenicillin for PBPs; conditions: covalent
# T1 construct: gene mrdA
# T1 sequence (A6T696 1-633): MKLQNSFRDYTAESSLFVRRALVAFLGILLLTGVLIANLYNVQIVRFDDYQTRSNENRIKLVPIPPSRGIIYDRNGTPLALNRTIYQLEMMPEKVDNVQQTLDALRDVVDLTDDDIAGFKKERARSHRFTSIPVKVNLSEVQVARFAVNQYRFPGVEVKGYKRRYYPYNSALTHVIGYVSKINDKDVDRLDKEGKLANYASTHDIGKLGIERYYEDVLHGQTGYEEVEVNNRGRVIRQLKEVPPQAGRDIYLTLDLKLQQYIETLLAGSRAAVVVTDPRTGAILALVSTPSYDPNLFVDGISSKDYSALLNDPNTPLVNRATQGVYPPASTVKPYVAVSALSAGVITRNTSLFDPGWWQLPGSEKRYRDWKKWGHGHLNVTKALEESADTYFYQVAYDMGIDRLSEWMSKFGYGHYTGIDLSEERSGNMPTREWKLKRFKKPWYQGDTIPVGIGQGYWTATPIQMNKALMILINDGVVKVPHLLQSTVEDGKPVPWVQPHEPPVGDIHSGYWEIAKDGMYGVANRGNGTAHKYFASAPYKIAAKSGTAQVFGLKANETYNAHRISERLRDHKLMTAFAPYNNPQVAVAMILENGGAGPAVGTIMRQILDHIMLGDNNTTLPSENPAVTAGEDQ
# [2] = target: T2, PBP3 of A. baumannii ATCC 17978 (Acinetobacter baumannii, UniProt A0ABX6CK25); test: competition with Bocillin FL for PBPs; conditions: covalent
# T2 construct: gene ftsI
# T2 sequence (A0ABX6CK25 1-610): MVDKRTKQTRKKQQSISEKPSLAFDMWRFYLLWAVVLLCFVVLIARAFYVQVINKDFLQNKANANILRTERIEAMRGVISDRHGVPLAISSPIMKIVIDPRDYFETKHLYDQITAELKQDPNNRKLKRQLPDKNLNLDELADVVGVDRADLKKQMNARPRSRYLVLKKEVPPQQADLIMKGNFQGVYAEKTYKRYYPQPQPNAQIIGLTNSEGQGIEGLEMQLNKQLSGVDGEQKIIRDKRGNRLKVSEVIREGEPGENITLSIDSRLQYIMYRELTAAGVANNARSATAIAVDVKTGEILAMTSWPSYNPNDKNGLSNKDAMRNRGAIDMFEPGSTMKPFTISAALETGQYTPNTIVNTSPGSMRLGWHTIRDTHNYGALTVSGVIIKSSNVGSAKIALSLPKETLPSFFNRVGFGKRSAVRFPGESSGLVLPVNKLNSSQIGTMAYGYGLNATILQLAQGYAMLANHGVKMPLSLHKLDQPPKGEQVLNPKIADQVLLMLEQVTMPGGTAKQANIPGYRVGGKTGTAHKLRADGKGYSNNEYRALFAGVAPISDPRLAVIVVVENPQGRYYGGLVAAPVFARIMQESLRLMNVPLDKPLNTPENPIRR
# Source text: competition with Bocillin FL for PBPs on PBP3 of A. baumannii ATCC 17978
# [3] = target: T3, PBP1a of P. aeruginosa ATCC 27853 (Pseudomonas aeruginosa, UniProt Q07806); test: competition with […]benzylpenicillin for PBPs; conditions: covalent
# T3 construct: gene mrcA
# T3 sequence (Q07806 whole entry): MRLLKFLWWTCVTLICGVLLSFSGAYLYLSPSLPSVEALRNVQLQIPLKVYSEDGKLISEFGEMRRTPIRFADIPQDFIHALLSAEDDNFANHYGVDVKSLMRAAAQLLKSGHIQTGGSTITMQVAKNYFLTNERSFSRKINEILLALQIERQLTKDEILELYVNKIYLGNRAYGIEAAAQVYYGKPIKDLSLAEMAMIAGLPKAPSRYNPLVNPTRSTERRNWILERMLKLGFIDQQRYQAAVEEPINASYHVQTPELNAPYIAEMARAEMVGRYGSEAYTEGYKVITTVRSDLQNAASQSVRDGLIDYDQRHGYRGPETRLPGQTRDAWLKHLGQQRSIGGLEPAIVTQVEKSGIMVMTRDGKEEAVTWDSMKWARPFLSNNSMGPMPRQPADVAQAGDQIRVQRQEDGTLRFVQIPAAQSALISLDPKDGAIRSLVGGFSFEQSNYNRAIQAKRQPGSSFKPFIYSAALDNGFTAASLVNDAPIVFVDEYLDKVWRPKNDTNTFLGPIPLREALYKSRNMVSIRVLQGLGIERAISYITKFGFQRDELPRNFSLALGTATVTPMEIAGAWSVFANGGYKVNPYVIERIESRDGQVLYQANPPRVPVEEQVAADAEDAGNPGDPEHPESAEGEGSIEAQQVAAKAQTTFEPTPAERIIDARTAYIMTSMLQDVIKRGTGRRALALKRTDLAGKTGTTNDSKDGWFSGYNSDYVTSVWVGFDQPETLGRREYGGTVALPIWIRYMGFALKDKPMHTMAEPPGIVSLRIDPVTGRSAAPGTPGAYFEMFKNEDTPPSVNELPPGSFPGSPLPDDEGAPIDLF
# [4] = target: T4, PBP4 of P. aeruginosa ATCC 27853 (Pseudomonas aeruginosa, UniProt Q9HZG1); test: competition with […]benzylpenicillin for PBPs; conditions: covalent; read-out: IC50 (μg/ml) / P. aeruginosa ATCC 27853 / Cefiderocol
# T4 construct: gene PA3047
# T4 sequence (Q9HZG1 entry or part of it): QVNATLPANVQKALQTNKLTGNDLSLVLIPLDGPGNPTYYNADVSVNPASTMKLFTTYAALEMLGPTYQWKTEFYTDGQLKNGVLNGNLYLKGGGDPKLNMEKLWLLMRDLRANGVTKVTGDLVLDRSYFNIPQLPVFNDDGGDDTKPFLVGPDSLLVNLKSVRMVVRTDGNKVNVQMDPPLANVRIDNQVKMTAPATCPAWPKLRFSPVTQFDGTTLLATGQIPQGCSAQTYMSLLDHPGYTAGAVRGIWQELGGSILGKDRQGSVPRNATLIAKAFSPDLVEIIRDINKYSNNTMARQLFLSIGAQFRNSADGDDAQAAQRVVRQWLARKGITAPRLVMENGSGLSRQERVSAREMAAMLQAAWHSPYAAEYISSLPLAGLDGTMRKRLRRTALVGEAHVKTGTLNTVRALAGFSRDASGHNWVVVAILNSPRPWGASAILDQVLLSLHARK
# [5] = target: T5, PBP1a of E. coli NIHJ JC-2 (Escherichia coli, UniProt P02918); test: competition with […]benzylpenicillin for PBPs; conditions: covalent
# T5 construct: gene mrcA
# T5 sequence (P02918 whole entry): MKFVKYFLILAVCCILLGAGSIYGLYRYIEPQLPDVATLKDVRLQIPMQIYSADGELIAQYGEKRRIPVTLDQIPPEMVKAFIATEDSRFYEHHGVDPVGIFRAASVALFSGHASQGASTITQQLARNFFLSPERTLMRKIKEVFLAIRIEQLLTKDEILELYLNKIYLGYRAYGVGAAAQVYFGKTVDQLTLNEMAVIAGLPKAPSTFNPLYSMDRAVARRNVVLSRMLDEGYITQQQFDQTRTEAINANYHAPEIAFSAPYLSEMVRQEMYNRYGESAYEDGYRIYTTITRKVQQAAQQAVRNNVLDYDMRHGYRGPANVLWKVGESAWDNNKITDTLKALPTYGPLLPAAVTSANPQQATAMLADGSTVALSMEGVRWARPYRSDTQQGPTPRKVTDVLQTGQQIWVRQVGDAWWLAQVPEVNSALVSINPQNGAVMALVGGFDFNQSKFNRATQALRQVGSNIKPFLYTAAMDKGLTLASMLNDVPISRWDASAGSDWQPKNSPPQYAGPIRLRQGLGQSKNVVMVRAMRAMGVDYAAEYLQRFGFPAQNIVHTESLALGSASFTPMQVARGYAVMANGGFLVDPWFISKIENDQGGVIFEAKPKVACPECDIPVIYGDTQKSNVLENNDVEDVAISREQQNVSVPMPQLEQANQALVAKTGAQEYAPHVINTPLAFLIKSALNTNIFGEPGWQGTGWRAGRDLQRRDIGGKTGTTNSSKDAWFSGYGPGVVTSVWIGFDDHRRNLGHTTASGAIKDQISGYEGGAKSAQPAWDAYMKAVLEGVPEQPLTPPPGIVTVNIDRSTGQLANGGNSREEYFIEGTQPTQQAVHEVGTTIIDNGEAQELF
# [6] = target: T6, PBP2 of A. baumannii ATCC 17978 (Acinetobacter baumannii, UniProt D0C8Z9); test: competition with Bocillin FL for PBPs; conditions: covalent
# T6 construct: gene mrdA
# T6 sequence (D0C8Z9 1-672): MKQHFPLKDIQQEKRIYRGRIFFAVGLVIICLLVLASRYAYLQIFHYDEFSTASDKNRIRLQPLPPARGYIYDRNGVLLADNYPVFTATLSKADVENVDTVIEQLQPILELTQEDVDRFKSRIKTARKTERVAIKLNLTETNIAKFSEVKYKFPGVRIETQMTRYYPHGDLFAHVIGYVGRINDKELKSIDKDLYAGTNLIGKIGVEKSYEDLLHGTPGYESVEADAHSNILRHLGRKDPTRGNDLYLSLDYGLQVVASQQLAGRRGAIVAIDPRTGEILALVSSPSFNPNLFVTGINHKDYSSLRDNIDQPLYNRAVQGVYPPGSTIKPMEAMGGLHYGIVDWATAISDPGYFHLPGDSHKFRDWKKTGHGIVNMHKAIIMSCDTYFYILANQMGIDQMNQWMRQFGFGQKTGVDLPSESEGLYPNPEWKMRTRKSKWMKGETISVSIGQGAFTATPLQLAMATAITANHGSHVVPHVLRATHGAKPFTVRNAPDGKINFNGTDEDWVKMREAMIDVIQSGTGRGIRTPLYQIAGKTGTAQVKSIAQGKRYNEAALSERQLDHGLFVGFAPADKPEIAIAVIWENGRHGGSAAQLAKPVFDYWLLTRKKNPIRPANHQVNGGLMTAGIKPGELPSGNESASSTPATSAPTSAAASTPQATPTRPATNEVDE
# Source text: competition with Bocillin FL for PBPs on PBP2 of A. baumannii ATCC 17978
# [7] = target: T7, PBP1b of E. coli NIHJ JC-2 (Escherichia coli, UniProt P02919); test: competition with […]benzylpenicillin for PBPs; conditions: covalent
# T7 construct: gene mrcB
# T7 sequence (P02919 whole entry): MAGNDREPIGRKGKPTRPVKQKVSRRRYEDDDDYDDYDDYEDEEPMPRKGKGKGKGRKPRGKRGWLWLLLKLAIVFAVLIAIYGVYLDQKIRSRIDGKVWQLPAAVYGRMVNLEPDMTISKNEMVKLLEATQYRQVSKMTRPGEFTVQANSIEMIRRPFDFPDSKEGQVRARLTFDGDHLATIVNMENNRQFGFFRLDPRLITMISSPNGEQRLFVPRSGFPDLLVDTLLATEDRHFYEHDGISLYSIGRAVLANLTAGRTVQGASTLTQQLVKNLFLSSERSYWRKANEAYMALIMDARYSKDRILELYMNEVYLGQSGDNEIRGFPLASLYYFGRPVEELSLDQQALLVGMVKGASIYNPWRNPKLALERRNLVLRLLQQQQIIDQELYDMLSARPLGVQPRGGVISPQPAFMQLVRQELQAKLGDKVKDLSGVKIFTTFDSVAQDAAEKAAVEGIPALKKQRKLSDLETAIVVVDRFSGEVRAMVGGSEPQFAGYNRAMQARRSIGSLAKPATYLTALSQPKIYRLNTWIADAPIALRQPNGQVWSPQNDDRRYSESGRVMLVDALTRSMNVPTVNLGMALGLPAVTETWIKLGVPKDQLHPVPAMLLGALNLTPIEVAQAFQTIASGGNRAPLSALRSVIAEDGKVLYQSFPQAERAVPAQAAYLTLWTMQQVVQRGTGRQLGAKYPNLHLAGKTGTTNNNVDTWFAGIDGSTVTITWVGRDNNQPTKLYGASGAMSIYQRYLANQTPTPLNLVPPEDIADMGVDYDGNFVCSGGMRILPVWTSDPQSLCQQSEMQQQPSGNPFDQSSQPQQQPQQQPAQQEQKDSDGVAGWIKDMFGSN
# [8] = read-out: IC50 (μg/ml) / A. baumannii ATCC 17978 ^a / Cefiderocol (converted)
# [9] = read-out: IC50 (μg/ml) / E. coli NIHJ JC-2 / Cefiderocol (converted)
# [10] = read-out: IC50 (μg/ml) / E. coli NIHJ JC-2 / Ceftazidime
smiles,measurement,setting,value
CC(C)(O/N=C(\C(=O)N[C@@H]1C(=O)N2C(C(=O)[O-])=C(C[N+]3(CCNC(=O)c4ccc(O)c(O)c4Cl)CCCC3)CS[C@H]12)c1csc(N)n1)C(=O)O [cefiderocol],IC50,[1]; read-out: IC50 (μg/ml) / K. pneumoniae SR22291 / Cefiderocol (converted),0.0838 µM
same,IC50,[2]; [8],0.891 µM
same,IC50,[3]; read-out: IC50 (μg/ml) / P. aeruginosa ATCC 27853 / Cefiderocol (converted),1.13 µM
same,IC50,[4],> 5.32 µM
same,IC50,[5]; [9],5.05 µM
same,IC50,[6]; [8],3.07 µM
same,IC50,[7]; [9],4.48 µM
CC(C)(O/N=C(\C(=O)N[C@@H]1C(=O)N2C(C(=O)[O-])=C(C[n+]3ccccc3)CS[C@H]12)c1csc(N)n1)C(=O)O [ceftazidime],IC50,[1]; read-out: IC50 (μg/ml) / K. pneumoniae SR22291 / Ceftazidime (converted),0.75 µM
same,IC50,[2]; read-out: IC50 (μg/ml) / A. baumannii ATCC 17978 ^a / Ceftazidime (converted),3.26 µM
same,IC50,[3]; read-out: IC50 (μg/ml) / P. aeruginosa ATCC 27853 / Ceftazidime (converted),6.62 µM
same,IC50,[4],> 7.32 µM
same,IC50,[5]; [10],> 7.32 µM
same,IC50,[6]; read-out: IC50 (μg/ml) / A. baumannii ATCC 17978 ^a / Ceftazidime,> 117 µM
same,IC50,[7]; [10],> 7.32 µM
